Assay results taken from PMC11079024, “Identification of a family of species-selective complex I inhibitors as potential anthelmintics” (Nature Communications, 2024).
Where “and” joins values, the source holds several entries; their conditions need not be identical. Equal values may be shown once. Read-outs that look alike come from different tables or passages of the source.

Key:
L1 wild-type C. elegans [1] = assay: 15-hour motility assay with drug alone (no KCN); assay type: cell-based, Caenorhabditis elegans; conditions: without KCN, 15-hour; for Value relative to DMSO control, drug alone (without KCN), Mean: mean of replicates; for Value relative to DMSO control, drug alone (without KCN): single replicates
L1 wild-type C. elegans [2] = conditions: drug + KCN, 15-hour; for KCN survival assay value relative to DMSO control, Mean: mean of replicates; for KCN survival assay value relative to DMSO control: single replicates
L1 wild-type C. elegans [3] = assay: whole plant or invertebrate; conditions: Caenorhabditis elegans, 15 h, read-out: C. elegans KCN survival assay LC50

Structure (SMILES) | Value relative to DMSO control, drug alone (without KCN), Mean (L1 wild-type C. elegans [1]; 0.025 µM) | Value relative to DMSO control, drug alone (without KCN) (L1 wild-type C. elegans [1]; 0.025 µM) | Value relative to DMSO control, drug alone (without KCN), Mean (L1 wild-type C. elegans [1]; 0.05 µM) | Value relative to DMSO control, drug alone (without KCN) (L1 wild-type C. elegans [1]; 0.05 µM) | Value relative to DMSO control, drug alone (without KCN), Mean (L1 wild-type C. elegans [1]; 0.1 µM) | Value relative to DMSO control, drug alone (without KCN) (L1 wild-type C. elegans [1]; 0.1 µM) | Value relative to DMSO control, drug alone (without KCN), Mean (L1 wild-type C. elegans [1]; 0.2 µM) | Value relative to DMSO control, drug alone (without KCN) (L1 wild-type C. elegans [1]; 0.2 µM) | Value relative to DMSO control, drug alone (without KCN), Mean (L1 wild-type C. elegans [1]; 0.4 µM) | Value relative to DMSO control, drug alone (without KCN) (L1 wild-type C. elegans [1]; 0.4 µM) | Value relative to DMSO control, drug alone (without KCN), Mean (L1 wild-type C. elegans [1]; 0.8 µM) | Value relative to DMSO control, drug alone (without KCN) (L1 wild-type C. elegans [1]; 0.8 µM) | Value relative to DMSO control, drug alone (without KCN), Mean (L1 wild-type C. elegans [1]; 3.1 µM) | Value relative to DMSO control, drug alone (without KCN) (L1 wild-type C. elegans [1]; 3.1 µM) | Value relative to DMSO control, drug alone (without KCN), Mean (L1 wild-type C. elegans [1]; 6.3 µM) | Value relative to DMSO control, drug alone (without KCN) (L1 wild-type C. elegans [1]; 6.3 µM) | Value relative to DMSO control, drug alone (without KCN), Mean (L1 wild-type C. elegans [1]; 12.5 µM) | Value relative to DMSO control, drug alone (without KCN) (L1 wild-type C. elegans [1]; 12.5 µM) | Value relative to DMSO control, drug alone (without KCN), Mean (L1 wild-type C. elegans [1]; 25 µM) | Value relative to DMSO control, drug alone (without KCN) (L1 wild-type C. elegans [1]; 25 µM) | also measured
O=C(Nc1cc(Cl)cc(Cl)c1O)c1c(O)c(Cl)cc(Cl)c1Cl [Oxyclozanide] | 0.970 | 1.075 and 0.779 and 1.056 | 1.040 | 0.978 and 1.142 and 1.000 | 1.014 | 1.026 and 1.091 and 0.926 | 0.862 | 0.850 and 0.960 and 0.775 | 0.811 | 0.730 and 0.844 and 0.861 | 0.863 | 0.803 and 1.008 and 0.777 | 0.927 | 0.899 and 1.068 and 0.814 | 0.856 | 0.946 and 0.940 and 0.683 | 0.986 | 0.842 and 1.234 and 0.881 | 0.843 | 0.680 and 1.053 and 0.797 | KCN survival assay value relative to DMSO control, Mean (L1 wild-type C. elegans [2]; 0.025 µM): 1.036; KCN survival assay value relative to DMSO control (L1 wild-type C. elegans [2]; 0.025 µM): 1.103 and 1.007 and 0.999; KCN survival assay value relative to DMSO control, Mean (L1 wild-type C. elegans [2]; 0.05 µM): 1.033; KCN survival assay value relative to DMSO control (L1 wild-type C. elegans [2]; 0.05 µM): 1.103 and 1.025 and 0.972; KCN survival assay value relative to DMSO control, Mean (L1 wild-type C. elegans [2]; 0.1 µM): 0.765; KCN survival assay value relative to DMSO control (L1 wild-type C. elegans [2]; 0.1 µM): 0.944 and 0.659 and 0.693; KCN survival assay value relative to DMSO control, Mean (L1 wild-type C. elegans [2]; 0.2 µM): 0.371; KCN survival assay value relative to DMSO control (L1 wild-type C. elegans [2]; 0.2 µM): 0.478 and 0.398 and 0.238; KCN survival assay value relative to DMSO control, Mean (L1 wild-type C. elegans [2]; 0.4 µM): 0.077; KCN survival assay value relative to DMSO control, Mean (L1 wild-type C. elegans [2]; 0.8 µM): 0.012; KCN survival assay value relative to DMSO control, Mean (L1 wild-type C. elegans [2]; 3.1 µM): 0.000; KCN survival assay value relative to DMSO control (L1 wild-type C. elegans [2]; 3.1 µM): 0.000; KCN survival assay value relative to DMSO control, Mean (L1 wild-type C. elegans [2]; 6.3 µM): 0.000; KCN survival assay value relative to DMSO control (L1 wild-type C. elegans [2]; 6.3 µM): 0.000; KCN survival assay value relative to DMSO control, Mean (L1 wild-type C. elegans [2]; 12.5 µM): 0.0006; KCN survival assay value relative to DMSO control, Mean (L1 wild-type C. elegans [2]; 25 µM): 0.000; KCN survival assay value relative to DMSO control (L1 wild-type C. elegans [2]; 25 µM): 0.000; LC50 (L1 wild-type C. elegans [3]): 158 nM
O=C(Nc1ccc(Oc2ccc(Cl)cc2)c(Cl)c1)c1cc(I)cc(I)c1O [Rafoxanide] | 1.251 | 1.299 and 1.275 and 1.179 | 1.063 | 1.000 and 1.187 | 0.952 | 0.779 and 1.140 and 0.937 | 0.871 | 0.876 and 1.068 and 0.668 | 0.805 | 0.814 and 0.980 and 0.622 | 0.942 | 0.867 and 0.978 and 0.981 | 0.954 | 1.089 and 0.794 and 0.978 | 1.113 | 1.082 and 1.203 and 1.055 | 1.298 | 1.422 and 1.293 and 1.177 | 1.108 | 1.103 and 1.144 and 1.075 | KCN survival assay value relative to DMSO control, Mean (L1 wild-type C. elegans [2]; 0.025 µM): 0.992; KCN survival assay value relative to DMSO control (L1 wild-type C. elegans [2]; 0.025 µM): 1.081 and 1.011 and 0.883; KCN survival assay value relative to DMSO control, Mean (L1 wild-type C. elegans [2]; 0.05 µM): 0.890; KCN survival assay value relative to DMSO control (L1 wild-type C. elegans [2]; 0.05 µM): 0.979 and 0.794 and 0.899; KCN survival assay value relative to DMSO control, Mean (L1 wild-type C. elegans [2]; 0.1 µM): 0.788; KCN survival assay value relative to DMSO control (L1 wild-type C. elegans [2]; 0.1 µM): 1.030 and 0.770 and 0.563; KCN survival assay value relative to DMSO control, Mean (L1 wild-type C. elegans [2]; 0.2 µM): 0.261; KCN survival assay value relative to DMSO control, Mean (L1 wild-type C. elegans [2]; 0.4 µM): 0.0026; KCN survival assay value relative to DMSO control, Mean (L1 wild-type C. elegans [2]; 0.8 µM): 0.0007; KCN survival assay value relative to DMSO control, Mean (L1 wild-type C. elegans [2]; 3.1 µM): 0.000; KCN survival assay value relative to DMSO control (L1 wild-type C. elegans [2]; 3.1 µM): 0.000; KCN survival assay value relative to DMSO control, Mean (L1 wild-type C. elegans [2]; 6.3 µM): 0.0019; KCN survival assay value relative to DMSO control, Mean (L1 wild-type C. elegans [2]; 12.5 µM): 0.000; KCN survival assay value relative to DMSO control (L1 wild-type C. elegans [2]; 12.5 µM): 0.000; KCN survival assay value relative to DMSO control, Mean (L1 wild-type C. elegans [2]; 25 µM): 0.000; KCN survival assay value relative to DMSO control (L1 wild-type C. elegans [2]; 25 µM): 0.000; LC50 (L1 wild-type C. elegans [3]): 141 nM
